From patent US20100184685A1 (priority 2009, published 2010)
Several values for one entry are separate records, joined by “and”; a condition that tells them apart may be missing. Equal values may be shown once.

Assays:
post-operative pain [1] = conditions: in vivo
post-operative pain [2] = tested on: post-operative pain; design: species or system human; conditions: in vivo

SMILES: CCCCN1CCCCC1C(=O)Nc1c(C)cccc1C (stereo not shown) [Marcaine]
- pain on the visual analog pain scale (post-operative pain [1]): 3-4 /10
- requirement for patient controlled analgesic (PCA) administration during hospitalization (post-operative pain [1]): did not require any patient controlled analgesic (PCA) administration
- signs of infection at the previous infusion catheter sites (post-operative pain [1]): without signs of infection
- pain level on the visual analog pain scale (post-operative pain [2]): 5-6 /10 and 4 /10
